Reference: ChEMBL document CHEMBL1130955, “Solid-phase synthesis of potential protein tyrosine phosphatase inhibitors via the Ugi four-component condensation” (Bioorg Med Chem Lett, 1998)

Test: Compound was tested for the inhibition of PTP-epsilon at the concentration 100 uM

inhibition, > 50%:
O=C(NC(C(=O)NCc1ccccc1)c1ccc(Oc2ccccc2)cc1)c1ccc(C(F)(F)P(=O)(O)O)cc1 (stereo not drawn)
CCCCCC(NC(=O)c1ccc(C(F)(F)P(=O)(O)O)cc1)C(=O)NCc1ccccc1 (stereo not drawn)
CN(C)c1ccc(C(NC(=O)c2ccc(C(F)(F)P(=O)(O)O)cc2)C(=O)NCc2ccccc2)cc1 (stereo not drawn)
